Laboratory results reported in DBAASP.
Converted amounts (≈) assume the structure as drawn. Each block holds one compound with its values, some of them ahead of it.

What was measured:
Experiment in all cases: ≥ marks a high value that may be exact or a test limit, other limits are often not marked, values filed in µg/mL are converted to µM
[1] = test system: Salmonella enterica subsp. arizonae ATCC 13314
Micrococcus luteus A270 = test system: Micrococcus luteus A270
[2] = test system: Pseudomonas aeruginosa ATCC 27853
Escherichia coli SBS 363 = test system: Escherichia coli SBS 363
Candida albicans MDM8 = test system: Candida albicans MDM8
[3] = test system: Staphylococcus aureus ATCC 25923
[4] = test system: Candida albicans ATCC 20032
[5] = test system: Escherichia coli ATCC 25922
[6] = test system: Bacillus subtilis ATCC 6633
Escherichia coli = test system: Escherichia coli
Staphylococcus aureus = test system: Staphylococcus aureus
Bacillus cereus = test system: Bacillus cereus
Bacillus anthracis = test system: Bacillus anthracis
[7] = test system: Bacillus subtilis CCT 2576
[8] = test system: Pseudomonas aeruginosa ATCC 15442
[9] = test system: Staphylococcus aureus ATCC 6538
Staphylococcus xylosus = test system: Staphylococcus xylosus
[10] = test system: Escherichia coli DH5alpha
Cryptococcus neoformans = test system: Cryptococcus neoformans
Bacillus subtilis = test system: Bacillus subtilis
Streptococcus pneumoniae = test system: Streptococcus pneumoniae
Salmonella typhimurium = test system: Salmonella typhimurium
Streptococcus mutans = test system: Streptococcus mutans
Serratia marcescens = test system: Serratia marcescens
Pseudomonas putida = test system: Pseudomonas putida
Saccharomyces cerevisiae = test system: Saccharomyces cerevisiae
Candida albicans = test system: Candida albicans
Escherichia coli JM109 = test system: Escherichia coli JM109
[11] = test system: Micrococcus luteus ATCC 9341

MIC [1]: ≥ 50 µM
MIC (Micrococcus luteus A270): 0.4 µM (≈ 0.502 µg/mL)
MIC [2]: 1.6 µM (≈ 2.01 µg/mL)
MIC (Escherichia coli SBS 363): 1.6 µM (≈ 2.01 µg/mL)
MIC (Candida albicans MDM8): 0.4 µM (≈ 0.502 µg/mL)
SMILES: CC[C@H](C)[C@H](NC(=O)[C@H](CC(C)C)NC(=O)[C@H](CO)NC(=O)[C@H](CC(C)C)NC(=O)[C@H](CC(C)C)NC(=O)[C@@H](N)CO)C(=O)N[C@@H](CCCN=C(N)N)C(=O)N[C@@H](CCCCN)C(=O)N[C@@H](CC(C)C)C(=O)N[C@@H](CC(C)C)C(=O)N[C@H](C(N)=O)[C@@H](C)O [SLLSLIRKLLT]

MIC [3]: 4.76 µM (≈ 9.4 µg/mL)
MIC [4]: 9.52 µM (≈ 18.8 µg/mL)
MIC [5]: > 50.6 µM
MIC [6]: 9.52 µM (≈ 18.8 µg/mL)
SMILES: CC[C@H](C)[C@H](N)C(=O)N[C@@H](CC(C)C)C(=O)NCC(=O)N1CCC[C@H]1C(=O)N[C@H](C(=O)N[C@H](C(=O)N[C@@H](CCCCN)C(=O)N[C@H](C(=O)N[C@H](C(=O)NCC(=O)NCC(=O)N[C@H](C(=O)N[C@H](C(=O)NCC(=O)NCC(=O)N[C@@H](CC(C)C)C(=O)N[C@@H](CC(C)C)C(=O)N[C@@H](CCCCN)C(=O)N[C@@H](CC(N)=O)C(=O)N[C@@H](CC(C)C)C(N)=O)[C@@H](C)CC)C(C)C)[C@@H](C)CC)[C@@H](C)O)[C@@H](C)CC)C(C)C [ILGPVIKTIGGVIGGLLKNL]

MIC [7]: 1.24 µM (≈ 1.5 µg/mL)
MIC [8]: 1.4 µM (≈ 1.7 µg/mL)
MIC [5]: 10.3 µM (≈ 12.5 µg/mL)
MIC [9]: 10.3 µM (≈ 12.5 µg/mL)
SMILES: CC[C@H](C)[C@H](N)C(=O)N[C@@H](CC(C)C)C(=O)NCC(=O)N[C@H](C(=O)N[C@H](C(=O)N[C@@H](CC(C)C)C(=O)NCC(=O)N[C@@H](CC(C)C)C(=O)N[C@@H](CC(C)C)C(=O)N[C@@H](CCCCN)C(=O)NCC(=O)N[C@@H](CC(C)C)C(N)=O)[C@@H](C)CC)[C@@H](C)O [ILGTILGLLKGL]

MIC (Escherichia coli JM109): 4.31 µM (≈ 8 µg/mL)
MIC [6]: 1.08 µM (≈ 2 µg/mL)
SMILES: CC[C@H](C)[C@H](N)C(=O)N[C@@H](CC(N)=O)C(=O)N[C@@H](Cc1c[nH]c2ccccc12)C(=O)N[C@@H](CCCCN)C(=O)N[C@@H](CCCCN)C(=O)N[C@H](C(=O)N[C@@H](C)C(=O)N[C@@H](CCC(=O)O)C(=O)N[C@H](C(=O)NCC(=O)NCC(=O)N[C@@H](CCCCN)C(=O)N[C@H](C(=O)N[C@@H](CC(C)C)C(=O)N[C@@H](CO)C(=O)N[C@@H](CO)C(=O)N[C@@H](CC(C)C)C(N)=O)[C@@H](C)CC)C(C)C)[C@@H](C)CC [INWKKIAEVGGKILSSL]

MIC (Cryptococcus neoformans): ≥ 159 µM
MIC (Bacillus subtilis): ≥ 79.7 µM
MIC (Escherichia coli): 159 µM (≈ 256 µg/mL)
MIC (Streptococcus pneumoniae): ≥ 79.7 µM
MIC (Salmonella typhimurium): ≥ 79.7 µM
MIC (Streptococcus mutans): ≥ 159 µM
MIC (Serratia marcescens): ≥ 159 µM
MIC (Staphylococcus aureus): 159 µM (≈ 256 µg/mL)
MIC (Pseudomonas putida): ≥ 159 µM
MIC (Saccharomyces cerevisiae): ≥ 159 µM
MIC (Candida albicans): > 159 µM
SMILES: CC(C)C[C@H](NC(=O)[C@H](CCCN=C(N)N)NC(=O)[C@H](Cc1cnc[nH]1)NC(=O)[C@@H](NC(=O)[C@H](CCCN=C(N)N)NC(=O)CNC(=O)[C@@H](NC(=O)[C@@H]1CCCN1C(=O)[C@H](Cc1ccccc1)NC(=O)[C@H](CCC(N)=O)NC(=O)[C@H](CC(C)C)NC(=O)CNC(=O)[C@H](C)NC(=O)[C@@H](N)CCCN=C(N)N)C(C)C)C(C)C)C(=O)O [RAGLQFPVGRVHRL]

MIC [11]: 25 µM (≈ 38.5 µg/mL)
SMILES: CC[C@H](C)[C@H](N)C(=O)N[C@@H](CC(C)C)C(=O)N1CCC[C@H]1C(=O)N[C@H](C(=O)N[C@@H](CCCCN)C(=O)N[C@H](C(=O)N1CCC[C@H]1C(=O)N[C@H](C(=O)N[C@H](C(=O)N1CCC[C@H]1C(=O)N[C@H](C(=O)N[C@@H](CCCN=C(N)N)C(=O)N[C@@H](CCCN=C(N)N)C(N)=O)[C@@H](C)CC)[C@@H](C)CC)[C@@H](C)CC)[C@@H](C)CC)[C@@H](C)CC [ILPIKIPIIPIRR]

Further lines, the compound ahead of its results:

SMILES: CC(C)C[C@H](NC(=O)[C@@H](NC(=O)[C@@H]1CCCN1C(=O)[C@H](CC(C)C)NC(=O)[C@@H](N)Cc1ccccc1)C(C)C)C(=O)N[C@H](C(=O)N[C@@H](CCCCN)C(=O)N[C@H](C(=O)N[C@@H](Cc1ccccc1)C(=O)N[C@@H](CCCN=C(N)N)C(=O)N[C@@H](Cc1ccc(O)cc1)C(=O)N[C@@H](CO)C(=O)N[C@@H](CCCCN)C(=O)N[C@@H](CCCCN)C(=O)N[C@H](C(=O)N[C@@H](C)C(=O)N[C@@H](C)C(=O)NCC(=O)N[C@@H](CS)C(=O)N[C@@H](Cc1ccccc1)C(=O)O)[C@@H](C)O)C(C)C)C(C)C [FLPVLVKVFRYSKKTAAGCF]
MIC (Escherichia coli): > 56.3 µM
MIC (Staphylococcus aureus): > 113 µM
MIC (Bacillus cereus): 28.1 µM (≈ 64 µg/mL)
MIC (Bacillus anthracis): ≥ 113 µM

SMILES: CC[C@H](C)[C@H](N)C(=O)N[C@@H](CC(C)C)C(=O)N[C@H](C(=O)N[C@@H](CCCCN)C(=O)N[C@@H](CCCN=C(N)N)C(=O)N[C@@H](CCCCN)C(=O)O)[C@@H](C)CC [ILIKRK]
MIC (Staphylococcus xylosus): ≥ 64 µM
MIC [10]: ≥ 64 µM

SMILES: CC(C)C[C@H](NC(=O)[C@H](CC(C)C)NC(=O)[C@H](CCCN=C(N)N)NC(=O)[C@H](CCCN=C(N)N)NC(=O)[C@H](CC(C)C)NC(=O)[C@H](CC(C)C)NC(=O)[C@H](CCCN=C(N)N)NC(=O)[C@H](CCCN=C(N)N)NC(=O)[C@H](CC(C)C)NC(=O)[C@H](CC(C)C)NC(=O)[C@H](CCCN=C(N)N)NC(=O)[C@H](CCCN=C(N)N)NC(=O)[C@H](CC(C)C)NC(=O)[C@H](CC(C)C)NC(=O)[C@H](CCCN=C(N)N)NC(=O)[C@H](CCCN=C(N)N)NC(=O)[C@H](CC(C)C)NC(=O)[C@H](CC(C)C)NC(=O)[C@@H](N)CCCN=C(N)N)C(=O)N[C@@H](CCCN=C(N)N)C(=O)O [RLLRRLLRRLLRRLLRRLLR]
MIC (Cryptococcus neoformans): 2.95 µM (≈ 8 µg/mL)
MIC (Bacillus subtilis): 0.738 µM (≈ 2 µg/mL)
MIC (Escherichia coli): 0.738 µM (≈ 2 µg/mL)
MIC (Streptococcus pneumoniae): 0.738 µM (≈ 2 µg/mL)
MIC (Salmonella typhimurium): 0.369 µM (≈ 1 µg/mL)
MIC (Streptococcus mutans): 0.738 µM (≈ 2 µg/mL)
MIC (Serratia marcescens): 0.738 µM (≈ 2 µg/mL)
MIC (Staphylococcus aureus): 0.369 µM (≈ 1 µg/mL)
MIC (Pseudomonas putida): 0.738 µM (≈ 2 µg/mL)
MIC (Saccharomyces cerevisiae): 2.95 µM (≈ 8 µg/mL)
MIC (Candida albicans): 2.95 µM (≈ 8 µg/mL)

SMILES: CC[C@H](C)[C@H](N)C(=O)N[C@@H](CC(C)C)C(=O)NCC(=O)N1CCC[C@H]1C(=O)N[C@H](C(=O)N[C@@H](CC(C)C)C(=O)NCC(=O)N[C@@H](CC(C)C)C(=O)N[C@H](C(=O)N[C@@H](CO)C(=O)N[C@@H](CC(N)=O)C(=O)N[C@H](C(=O)N[C@@H](CC(C)C)C(=O)N[C@@H](CC(=O)O)C(=O)N[C@@H](CC(=O)O)C(=O)N[C@H](C(=O)N[C@@H](CC(C)C)C(=O)NCC(=O)N[C@H](C(=O)N[C@@H](CC(C)C)C(N)=O)[C@@H](C)CC)C(C)C)[C@@H](C)O)C(C)C)C(C)C [ILGPVLGLVSNTLDDVLGIL]
MIC [3]: > 49.5 µM
MIC [4]: ≥ 49.5 µM
MIC [5]: > 49.5 µM
MIC [6]: ≥ 49.5 µM

SMILES: CC(C)C[C@H](NC(=O)[C@H](CC(C)C)NC(=O)[C@H](CO)NC(=O)[C@H](CCCCN)NC(=O)[C@H](CC(C)C)NC(=O)[C@@H]1CCCN1C(=O)[C@H](C)NC(=O)[C@H](Cc1ccccc1)NC(=O)[C@@H]1CCCN1C(=O)[C@H](CC(C)C)NC(=O)[C@@H](NC(=O)[C@H](CCCCN)NC(=O)[C@H](CCCCN)NC(=O)[C@@H](NC(=O)[C@H](CO)NC(=O)[C@@H](N)C(C)C)C(C)C)C(C)C)C(=O)N[C@@H](CO)C(=O)N[C@@H](Cc1ccccc1)C(=O)N[C@@H](C)C(=O)N[C@@H](Cc1ccccc1)C(=O)O [VSVKKVLPFAPLKSLLSFAF]
MIC (Escherichia coli): 117 µM (≈ 256 µg/mL)
MIC (Staphylococcus aureus): > 117 µM
MIC (Bacillus cereus): ≥ 117 µM
MIC (Bacillus anthracis): ≥ 117 µM
